For 91 molecules, melting point results are on record in a melting point compilation (Tetko et al.; mined from patent text by program, amines drawn as free bases though some values may be those of a salt).

The melting point is the temperature, or range, at which the solid turns liquid.

Consider `COC(=O)C1=C(C)NC(C)=C(C(=O)OCCN2CCN(C(c3ccccc3)c3ccccc3)CC2)C1c1cccc(Cl)c1Cl` (stereo unspecified), for which the melting point fell in the range of 84 to 88 °C. `COc1ccc(Cl)cc1C1CC(=O)c2c(C)ccnc2C1` (stereo unspecified) displayed a melting point of 131 to 133 °C.

Turning to `COc1ccc(C2=NOC(C)(/C(N)=C/OC(C)=O)C2)cc1OC1CCCC1` (stereo unspecified), the melting point was 131 °C.

In turn, `NC(=O)c1ncn2c(-c3cccc(Cl)c3)ccnc12` yielded a melting point of 252 to 254 °C. The figure for `COc1cccc(-n2c(=O)c3c(c4cccnc42)OC(COC(C)=O)C3)c1` (stereo unspecified) is 183 to 184 °C; for `C[Si]1(C)CCCCCC[Si](C)(C)O[Si](C)(C)CCCCCC[Si](C)(C)O1` it is 48 to 50 °C; for `CCOCc1nc2c(N)nc3c(c2n1CC1(O)CCCC1)NCCC3` it is 207 to 208 °C. To `OC1CSC(Oc2cncc(-c3ccc(F)c(F)c3)c2)C(O)C1O` (stereo unspecified) belongs 198 to 203 °C; to `CCOC(=O)N1c2cc(OC)c(OC)cc2C(=O)CC1C` (stereo unspecified), 94 to 95 °C. Molecule `Cc1cnc2cc(N)ccc2n1` gave a melting point of 163 to 164 °C. To `CCCCNc1c(C(=O)OCC)c(C)nc2nc(C)c(C)nc12` belongs 97 to 99 °C; to `COc1cc2c(c3c1OC(C)(C)C3)C(c1cccc(-c3ccc4ccccc4n3)c1)=NC(C)(C)C2`, 167 to 169 °C.

For the molecule `CC12CCC(=O)C=C1CCC1C2CCC2(C)C1CC(O)C2NCC(=O)C(F)(F)F` (stereo unspecified), the melting point is 217 to 220 °C. The figure for `CC(CCc1ccc(CC(=O)O)cc1)CC(=O)O` (stereo unspecified) is 100 to 102 °C.

The molecule `COc1cc(C(=O)O)c(OC)c2c1C(C)(C)CCC2(C)C` had a melting point of 187 °C.

With `CCN1CCC(O)(c2cccc(Cl)c2F)C1` (stereo unspecified), the melting point is 71 to 74 °C. For the molecule `CCCCC(=O)N[C@@H]1CN2C(=O)N(c3cc(Cl)nc(Cl)c3)C(=O)[C@@]2(Cc2ccc(OC(F)(F)F)cc2)C1`, the melting point came to 66.8 °C. The figure for `CCOC(=O)C(=CO)CCN1CCC(C2(c3ccc(F)cc3)OCCO2)CC1` is 117 °C; for `CCC(C)(C)c1cc(C(=O)O)c(O)c(C(C)(C)CC)c1` it is 132 to 133 °C; for `CCn1nc(-c2ccc(Oc3nc4cccnc4n3C)cc2)c2nccnc21` it is 161 to 162 °C. Molecule `Nc1nc(NCCc2ccc(CCC3CCCCC3)cc2)nc2c1ncn2C1OC(CO)C(O)C1O` (stereo unspecified) came in with a melting point of 154 to 160 °C. To `O=CNCC1CC2C3CC4C2C4C13` (stereo unspecified) belongs 225 to 226 °C; to `N#Cc1ccc(NC(=O)c2cccc(OCc3cccc(F)c3F)c2)cc1`, 149 to 150 °C; to `CCCCCCN1C(=O)c2cscc2Nc2ccccc21`, 100 to 102 °C. To `Cc1ccc(NC(=O)c2cc(Cl)ccc2NCC2CCN(C3CCCC3)CC2)nc1` belongs 150 to 152 °C; to `CCOC(=O)CNc1nccc(-c2ccccn2)n1`, 85 °C.

As for `C=C1CCC2C3Cc4ccc(O)cc4C2(CCN3CC2CC2)C1` (stereo unspecified), the melting point was in the range of 220 to 223 °C. As for `O=C(Nn1ccnc1)N1CCCCC1COCc1ccccc1Cl` (stereo unspecified), the melting point was in the range of 91 to 92 °C.

`Cc1cc(C(F)(F)F)n2nc(NS(=O)(=O)c3ccccc3Cl)nc2n1` displayed a melting point of 203 to 204 °C.

Take `N=C(Nc1ccc(NC(=O)CNCc2ccccc2)cc1)c1cccs1`: the melting point was in the range of 161 to 163 °C. The figure for `O=CC(Cl)=Cc1cccc(Oc2ccc([N+](=O)[O-])c([N+](=O)[O-])c2)c1` is 100 to 101 °C; for `CCc1cc(=O)c(C(=O)OC)c(C)[nH]1` it is 176 to 180 °C. `Cc1ccc(C)n1-c1c(C(C)C)cc([N+](=O)[O-])cc1C(C)C` had a melting point of 125 to 132 °C. On to `NC(=O)COc1ccccc1C(=O)Nc1ccc(C(=O)N2CCCC(=O)c3ccccc32)cc1`, for which the melting point is 226 to 228 °C. The figure for `CC1=CC(O)C(OC(=O)c2ccccc2)C(C)(C)CC1=O` (stereo unspecified) is 99 to 100 °C. The figure for `CC1CC(=O)NN=C1c1ccc(NCCNC(N)=S)c([N+](=O)[O-])c1` (stereo unspecified) is 231 to 233 °C. `CCCOc1ccccc1-c1nc(O)cc(Cl)n1` yielded a melting point of 116 °C. The figure for `CC1(C)CC(=O)c2c(Sc3ncccn3)sc(-c3cc[nH]n3)c2C1` is 245 °C; for `COc1cc2c3c(nc4ccccc4c3c1)-c1ccccc1N2C` it is 214 to 216 °C; for `O=S(=O)(C(/C=C/c1ccc(Br)cc1)c1c(F)c(F)c(F)c(F)c1F)C(/C=C/c1ccc(Br)cc1)c1c(F)c(F)c(F)c(F)c1F` (stereo unspecified) it is 176 to 177 °C.

Consider `COc1ccc(COc2ccccc2Br)cc1`, for which the melting point was in the range of 87 to 90 °C.

Molecule `CCSc1nc(C#N)c(C#N)nc1Cl` came in with a melting point of 55 to 58.5 °C. The figure for `N#CCC(=O)NCCCNC(=O)CC#N` is 146 °C; for `Cc1ccc(C(CC(=O)O)c2ccc(F)cc2)cc1` (stereo unspecified) it is 137 to 139 °C. Molecule `Cc1ccc(C)c(OCCCC(=O)O)c1` showed a melting point of 63 to 65 °C. The figure for `CCOC(=O)C1Cc2cc(-c3noc4ccccc34)c(Cl)c(Cl)c2O1` (stereo unspecified) is 114 to 116 °C; for `CC1(C)Oc2cc(C#N)sc2[C@@H](N2CCCCC2=O)[C@@H]1O` (relative stereo) it is 212 to 214 °C. Molecule `CC(C#N)S[C@H](C)[C@](O)(Cn1cncn1)c1ccc(F)cc1F` (stereo partly specified) displayed a melting point of 66 to 68 °C. `CCOc1cccc2c1Sc1ccccc1C2` gave a melting point of 95 to 98 °C.

`CN(C)N1CSC(=Cc2cc(C(C)(C)C)c(O)c(C(C)(C)C)c2)C1=O` yielded a melting point of 138 to 141 °C.

`O=C(c1cc(Cl)cc(Cl)c1)N1CCc2cc(S(=O)(=O)N3CCN(c4cccc(Cl)c4)CC3)ccc21` returned a melting point of 262 to 263 °C. To `COC(=O)C(C)Oc1ccc(Oc2ncc(Cl)cc2N)cc1` (stereo unspecified) belongs 92 to 94 °C; to `Cc1nc(-n2ccc(N3CCNC3=O)cc2=O)sc1C(=O)NCc1ccccc1`, > 300 °C; to `CC(C)c1nc2c(nc1C(C)C)C(=O)CCC2`, 92 to 94 °C. The figure for `O=C1CCC(N2C(=O)c3cccc(OCc4ccc(CN5CCC(c6ccccc6)CC5)cc4)c3C2=O)C(=O)N1` (stereo unspecified) is 142 to 144 °C; for `N#Cc1ccc(CCO)nc1` it is 92 to 93 °C. The figure for `Oc1ccc(OCCn2nc3c(n2)CCCC3)cc1` is 93 °C. Regarding `COc1cc2c(cc1OC(C)=O)C(=O)CCC2`, the melting point lay in the range of 118 to 120 °C.

`NS(=O)(=O)c1ccc(-c2cnn(C3CC=CCC3)c(=O)c2-c2ccc(F)cc2)cc1` (stereo unspecified): the melting point was in the range of 206 to 208 °C.

Turning to `COC(=O)c1cnco1`, the melting point was in the range of 35 to 50 °C. The figure for `COc1ccc2c(c1)NCCO2` is 59 to 61 °C; for `Nc1nc(Sc2ccc(F)cc2)cc(-c2ccccc2)n1` it is 218 to 220 °C. To `O=Cc1ccc(OCc2ccccc2)c(CCl)n1` belongs 72 to 73 °C. As to `N#Cc1cccc(-c2nc(N3CCC(CC(=O)O)CC3)cc3cccnc23)c1`, the melting point fell in the range of 178 to 180 °C.

For the molecule `CCCCNC(=O)Oc1cccc(NC(=O)C=C(CCC)OC)c1`, the melting point worked out at 150 °C. `Cc1ccc(C(C)(C)CCCCC(=O)O)cc1C` yielded a melting point of 71 to 73 °C. To `O=c1n(Cc2ccccc2)nc2n1C=Cc1ccccc1C2` belongs 133 to 134 °C; to `CCn1cc(C(=O)O)c(=O)c2cc(F)c(-c3csc(CN)n3)c(F)c21`, 199 to 203 °C.

As for `Cn1c(-c2ccc(C(=N)N)cc2)nc2cc(C(=O)NCCC(=O)O)ccc21`, the melting point was in the range of 247 to 249 °C. To `O=C(CCc1ccccc1)Nc1cc(-c2ccccc2)[nH]n1` belongs 168 to 170 °C; to `CCOC(=O)CCc1cn(CC(=O)N(C)CCc2ccccc2)c2ccc(OCc3ccccc3)cc12`, 81 to 83 °C.

For `COc1ccc(C(=O)Nc2ccccc2)cc1NS(=O)(=O)Cc1ccccc1`, the melting point worked out at 216 °C. To `CCCCNC(=O)N1N=C(c2ccc([N+](=O)[O-])cc2)c2cc(Cl)ccc2CC1C` (stereo unspecified) belongs 150 °C.

As for `c1ccc2c(CC3CCCCC3)c[nH]c2c1`, the melting point is 71 to 73 °C.

Turning to `Cc1cccc(C(Nc2ccccc2)P(=O)(Oc2ccccc2)Oc2ccccc2)n1` (stereo unspecified), the melting point is 110 to 112 °C. Regarding `CC(=O)OCCCC#Cc1ccccc1S(N)(=O)=O`, the melting point is 136 to 138 °C. In turn, `CC(=O)Oc1ccc(C(=O)OCC[C@H](C)COC(=O)c2ccc(OC(C)=O)cc2)cc1` yielded a melting point of 46 °C. The figure for `CC1(C)C=C(c2ccc(C(=O)N3Cc4cccn4Cc4ccccc43)cc2)CC(C)(C)C1` is 142 to 143 °C; for `Cc1oc(-c2ccco2)nc1COc1ccc(COc2nn(Cc3ccccc3)cc2C(=O)O)cc1OCc1ccccc1` it is 184 to 185 °C; for `NCCN1C(=O)CN(c2ccc3c(c2)OCO3)C1=O` it is 171 to 173 °C. The molecule `Nc1ccc(N2CCN(C(C(=O)NCC(F)(F)F)c3ccccc3)CC2)cc1` (stereo unspecified) showed a melting point of 136 °C.

As for `CN1c2ccc(C#CCOC3CCCCO3)cc2C(=O)CS1(=O)=O` (stereo unspecified), the melting point was in the range of 107 to 108 °C.

Take `CN1C(=O)C(C)(C)C(=O)Nc2cc(C=O)ccc21`: the melting point is 208 to 210 °C. In turn, `O=c1c2[nH]cnc2n(CC2CCCCC2)c(=O)n1CC1CC1` displayed a melting point of 181 °C.

`C=Cc1cc(NC(=O)N2CCN(c3cc(F)cc(F)c3)CC2)c(OC)nc1C` had a melting point of 160 to 161 °C.

In turn, `Cc1nc(-n2ccc(OCc3ccc(F)cc3)cc2=O)sc1C(=O)NCc1ccccc1` registered a melting point of 243 to 245 °C. To `Cc1c(OCC(F)(F)F)ccnc1CSc1nc2ccccc2n1NCC(C)C` belongs 82 to 83 °C. To `Cc1ccc(N2C(=O)c3ccccc3C2O)nn1` (stereo unspecified) belongs 232 °C; to `CCCc1nc2c(N)nc3cc(OCc4ccc(OC)cc4)ccc3c2n1CC(C)C`, 186 to 188 °C; to `CCOC(=O)CN(CCOc1cc2cc3ncc(C#N)c(Nc4cc(OC)c(Cl)cc4C)c3cc2cc1OCC)CC(=O)OCC`, 85 to 86 °C.

The molecule `N#Cc1ccc2c(c1)C1OC1C1(CCCCC1)O2` (stereo unspecified) registered a melting point of 222 to 225 °C.
